This experiment relates to muscular bilayer tissues of biohybrid fish (human stem cell-derived CMs). Nature of the experiment: Antagonistic contraction and swimming performance of self-paced biohybrid fish treated with stretch-activated channel blockers. It is filed as cell-based. Conditions: for Spontaneous frequencies of treated muscular bilayer tissues (frequency-domain analysis of tail-beat angle) / Empirical probability of antagonistic contraction / Moving (swimming) speed: 250 μM streptomycin or 100 μM Gd3+; for Spontaneous frequencies of treated muscular bilayer tissues (frequency-domain analysis of tail-beat angle): power spectral density; for Empirical probability of antagonistic contraction / Moving (swimming) speed: self-paced biohybrid fish, at least 24 hours. The procedure:
The biohybrid fish was placed in Tyrode's solution (1.8 mM CaCl2, 5 mM glucose, 5 mM Hepes, 1 mM MgCl2, 5.4 mM KCl, 135 mM NaCl, and 0.33 mM NaH2PO4 in deionized water, pH 7.4, at 37° C.; Sigma Aldrich, St. Louis, Mo.) in a 22 cm square chamber (VWR International, Radnor, Pa.) on a hotplate (VWR International, Radnor, Pa.) and temperature was maintained at 35° C. to 37° C. The recording of swimming performance of biohybrid fish was filmed with a sCMOS camera (Pco.edge, PCO AG, Germany) coupled with a zoom camera lens (Thorlabs Inc, Newton, N.J.) at 50 frames per second or a single-lens recorder (AXP55 4K Handycam, Sony, Japan) with a 26.8 mm wide-angle lens at 50 frames per second.
To check the effect of mechanical signaling on the antagonistic contraction of muscular bilayer tissues, the biohybrid fish were treated with 250 μM streptomycin or 100 μM Gd^3+ (both from Sigma-Aldrich, St. Louis, Mo.) before recording, streptomycin or Gd^3+ for at least 24 hours.
Digital videos recorded during locomotion experiments were converted to image stacks using a custom-made Matlab program (24) (R2020b, Mathworks, Natick, Mass.). The head, body, and tail positions of the biohybrid fish were tracked using an image processing software (ImageJ, NIH, Bethesda, Md.). The moving distance of the biohybrid fish was measured during each tail-beat cycle, and the swimming speed was calculated by dividing the cumulative distance travelled by the total time. Tail-beat amplitude was measured as the distance between maximum right and left excursions. Tail-beat angle (θ) was calculated as the body angle difference between chord lines of its anterior body and caudal fin at the maximum right and left excursions. Antagonistic contraction was determined by checking whether a muscle contraction induced the subsequent contraction of the opposite side muscle with any delay or not. The empirical probability of antagonistic contraction was determined by dividing the number of antagonistic contractions by the total number of contractions.

The mark [1] stands for this setting: after Gd3+ treatment versus before.

Entries after “also recorded” stand apart in the source; their conditions may differ.

Regarding `[H]/N=C(/N)N[C@H]1[C@H](O)[C@@H](O)[C@H](O[C@@H]2O[C@@H](C)[C@](O)(C=O)[C@H]2O[C@@H]2O[C@@H](CO)[C@H](O)[C@@H](O)[C@@H]2NC)[C@@H](N/C(N)=N\[H])[C@@H]1O` [streptomycin], the “Spontaneous frequencies of treated muscular bilayer tissues (frequency-domain analysis of tail-beat angle)” value was “not harmonic”, the “Empirical probability of antagonistic contraction” value (from here on “Empirical probability”) is given as “disrupted antagonistic contractions; also recorded: sensitive; also recorded: reduced the chance of antagonistic muscle contraction; also recorded: significantly decreased” and the “Moving (swimming) speed” value is “reduced”.
As to `[Gd+3]` [Gd^3+, gadolinium], the “Spontaneous frequencies of treated muscular bilayer tissues (frequency-domain analysis of tail-beat angle)” value is given as “not harmonic”, the “Empirical probability” value was “disrupted antagonistic contraction; also recorded: sensitive; also recorded: significantly decreased” and the “Moving (swimming) speed” value was “reduced”. Besides, under setting [1], the “Reduction in Re (Reynolds number)” value turned out to be 80.8% and the “Reduction in Sw (Swimming number)” value stood at 40.6%. In addition, the “Empirical probability” value (listed as Gd3+) is “reduced the chance of antagonistic muscle contraction”.
